Data set [1] relates to Escherichia coli NDM-7. Put plainly: Antibiotic susceptibility testing (MIC), EC NDM-7. It counts as cell-based. To be noted: agar or broth dilution (CLSI/EUCAST). The procedure: (§1) Antibiotic susceptibility testing was performed using the agar or broth dilution method, in line with the Clinical and Laboratory Standards Institute (CLSI) and European Committee on Antimicrobial Susceptibility Testing (EUCAST) requirements.

For data set [2], the target named is VIM-1 (Pseudomonas aeruginosa, UniProt A0A0F7KYQ8). Put plainly: MBL inhibition, FC-5 fluorescence assay, VIM-1. Format: biochemical. To be noted: FC-5 cephalosporin substrate, ranges of obtained pIC50, read-out: pIC50 VIM-1 (converted). Here is the method:
(§2) Inhibitors were tested using a panel of the clinically relevant B1 MBLs (NDM-1, VIM-1, -2 and IMP-1). Activities were assayed by monitoring the release of a fluorophore following the enzymatic breakdown of the cephalosporin FC-5 (https://pubs.acs.org/doi/abs/10.1021/jm400769b). FC-5 assays were conducted in clear bottomed 384 black well microplates (Greiner); the initial rate of reaction was assessed by monitoring the fluorescence intensity (λex=380 nm and λem=460 nm) using a Pherstar FS (BMG LabTech) plate reader. Initial rates of reaction were determined and dose-response analyses conducted in GraphPad Prism. Dose-response curves were fitted using the log(inhibitor) vs normalized response—variable slope model of GraphPad Prism 12. Each concentration point for routine screening was conducted with 4 intra-plate replicates.

The target of data set [3] is IMP-1 (Serratia marcescens, UniProt P52699). The data set can be described thus: MBL inhibition, FC-5 fluorescence assay, IMP-1. It counts as biochemical. The note with it: FC-5 cephalosporin substrate, fluorescence; ranges of obtained pIC50; read-out: pIC50 IMP-1 (converted). Here is the method: as §2
Chain of IMP-1 (P52699 19-246, looked up, species assumed): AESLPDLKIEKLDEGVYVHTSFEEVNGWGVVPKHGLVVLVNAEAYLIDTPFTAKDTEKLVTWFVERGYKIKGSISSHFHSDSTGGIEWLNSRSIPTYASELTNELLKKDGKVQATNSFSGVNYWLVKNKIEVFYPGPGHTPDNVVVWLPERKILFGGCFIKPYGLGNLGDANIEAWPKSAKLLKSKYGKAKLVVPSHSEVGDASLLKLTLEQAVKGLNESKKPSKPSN
The target in data set [4] is VIM-2 (Escherichia coli, UniProt Q5U7L7). Put plainly: MBL inhibition, FC-5 fluorescence assay, VIM-2. Format: biochemical. To be noted: FC-5 cephalosporin substrate, ranges of obtained pIC50, read-out: pIC50 VIM-2 (converted). Here is the method: as §2
The test system of data set [5] is Acinetobacter baumannii NDM-1. Put plainly: Antibiotic susceptibility testing (MIC), AB NDM-1. Format: cell-based. To be noted: agar or broth dilution (CLSI/EUCAST). The procedure:
as §1

Data set [6] has as its target NDM-1 (Klebsiella pneumoniae, UniProt C7C422). Put plainly: MBL inhibition, FC-5 fluorescence assay, NDM-1. It counts as biochemical. The note with it: FC-5 cephalosporin substrate, fluorescence; ranges of obtained pIC50; read-out: pIC50 NDM-1 (converted). Here is the method:
as §2

Data set [7] concerns Escherichia coli NDM-1. The data set can be described thus: Antibiotic susceptibility testing (MIC), EC NDM-1. Format: cell-based. The note with it: agar or broth dilution (CLSI/EUCAST). Here is the method: as §1
For orientation: Broth dilution looks for growth in wells or tubes with falling amounts of substance.

Data set [8] in a line: Plasma protein binding, equilibrium dialysis, human plasma. Format: in vitro ADME. To be noted: pH 7.4, equilibrium dialysis (RED) 4 hours at 37° C., read-out: Plasma protein binding, fu, Human. The procedure:
The fraction of unbound compound (fu) in plasma from human or other animal species was determined by equilibrium dialysis at 37° C. for 4 hours using the Rapid Equilibrium Dialysis (RED) device (ThermoFisher Scientific). The test compound at a concentration of 10 μM was added to plasma and dialyzed against isotonic phosphate buffer (67 mM, pH 7.4) over 4 hours at 37° C. After dialysis, compound concentrations in buffer and plasma were quantified by LC-MS/MS. In parallel the stability of the compound in plasma was determined by incubating drug-spiked plasma (10 μM) at 37° C. for 4 hours, meanwhile the control plasma sample was kept in the freezer. The concentration of the compound in both samples was quantified by LC-MS/MS (Waters Corp, Milford, MA, USA).
In general terms: In equilibrium dialysis only unbound substance equilibrates across the membrane.

SMILES strings stand for the structures.

Chain of NDM-1 (C7C422 29-270, looked up, species assumed): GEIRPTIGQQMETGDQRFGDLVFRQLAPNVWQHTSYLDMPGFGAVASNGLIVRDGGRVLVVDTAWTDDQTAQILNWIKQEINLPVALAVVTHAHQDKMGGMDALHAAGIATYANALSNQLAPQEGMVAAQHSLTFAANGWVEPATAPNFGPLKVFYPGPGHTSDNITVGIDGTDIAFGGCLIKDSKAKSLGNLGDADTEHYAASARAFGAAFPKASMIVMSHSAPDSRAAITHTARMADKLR

On to `COc1cc(-c2c(C(=O)O)[nH]c3c([C@H](C)N4CC5(CC(CN)C5)OC4=O)cccc23)ccn1` (stereo partly drawn) [IC-20, 7-((1S)-1-(2-(aminomethyl)-6-oxo-5-oxa-7-azaspiro[3.4]octan-7-yl)ethyl)-3-(2-methoxypyridin-4-yl)-1H-indole-2-carboxylic acid], for which, in data set [1], the “MIC values EC NDM-7” value is given as “A (A = MIC values ≤ 1)”. For the same compound, the IC50 in data set [2] was 1 to 10 nM; in data set [3] it was above 10 nM; in data set [4], 0.1 to 1 nM; in data set [6] it was 0.1 to 1 nM. Also, the “MIC values AB NDM-1” value in data set [5] is “B (B MIC values 2 ÷ 8)”. For the same compound, the “MIC values EC NDM-1” value in data set [7] was “A (A = MIC values ≤ 1)”.
Take `COc1cc(-c2c(C(=O)O)[nH]c3c([C@H](C)N4C[C@]5(C[C@@H](CN)C5)OC4=O)cccc23)cnc1O` [IC-25, 7-((S)-1-((2S,4r)-2-(aminomethyl)-6-oxo-5-oxa-7-azaspiro[3.4]octan-7-yl)ethyl)-3-(6-hydroxy-5-methoxypyridin-3-yl)-1H-indole-2-carboxylic acid]: in data set [1], the “MIC values EC NDM-7” value is listed as “B (B MIC values 2 ÷ 8)”. For the same compound, the IC50 in data set [2] is above 10 nM; in data set [3], above 10 nM; in data set [4], 0.1 to 1 nM; in data set [6], above 10 nM. The fraction unbound at 4 h, 10 μM in data set [8] is above 0.25. The “MIC values AB NDM-1” value in data set [5] is recorded as “C (C = MIC values > 8)”. In data set [7], the “MIC values EC NDM-1” value is on record as “C (C = MIC values > 8)”.
`C[C@@H](c1cccc2c(-c3c[nH]c(=O)c(F)c3)c(C(=O)O)[nH]c12)N1C[C@]2(C[C@@H](CN)C2)OC1=O` [IC-26, 7-((1S)-1-(2-(aminomethyl)-6-oxo-5-oxa-7-azaspiro[3.4]octan-7-yl)ethyl)-3-(5-fluoro-6-oxo-1,6-dihydropyridin-3-yl)-1H-indole-2-carboxylic acid]: the “MIC values EC NDM-7” value in data set [1] is recorded as “A (A = MIC values ≤ 1)”. Further, the IC50 in data set [2] is above 10 nM; in data set [3], above 10 nM; in data set [4], 0.1 to 1 nM; in data set [6] it was 1 to 10 nM. Also, in data set [8], the fraction unbound at 4 h, 10 μM was in the range of 0.05 to 0.25. Besides, in data set [5], the “MIC values AB NDM-1” value is reported as “C (C = MIC values > 8)”. Also, in data set [7], the “MIC values EC NDM-1” value is given as “B (B MIC values 2 ÷ 8)”.
With `COc1ncc(-c2c(C(=O)O)[nH]c3c([C@H](C)N4C[C@]5(C[C@@H](CN)C5)OC4=O)cccc23)cc1O` [IC-27, (S)-7-(1-(2-(aminomethyl)-6-oxo-5-oxa-7-azaspiro[3.4]octan-7-yl)ethyl)-3-(5-hydroxy-6-methoxypyridin-3-yl)-1H-indole-2-carboxylic acid], the “MIC values EC NDM-7” value in data set [1] is on record as “A (A = MIC values ≤ 1)”. For the same compound, the IC50 in data set [2] is 1 to 10 nM; in data set [3], above 10 nM; in data set [4], below 0.1 nM; in data set [6], 0.1 to 1 nM. Besides, in data set [8], the fraction unbound at 4 h, 10 μM is 0.05 to 0.25. Also, the “MIC values AB NDM-1” value in data set [5] is reported as “B (B MIC values 2 ÷ 8)”. Moreover, the “MIC values EC NDM-1” value in data set [7] is on record as “B (B MIC values 2 ÷ 8)”.
In the case of `C[C@@H](c1cccc2c(-c3cnn(C)c(=O)c3)c(C(=O)O)[nH]c12)N1C[C@]2(C[C@@H](CN)C2)OC1=O` [IC-28, 7-((S)-1-((2S,4r)-2-(aminomethyl)-6-oxo-5-oxa-7-azaspiro[3.4]octan-7-yl)ethyl)-3-(1-methyl-6-oxo-1,6-dihydropyridazin-4-yl)-1H-indole-2-carboxylic acid], the “MIC values EC NDM-7” value in data set [1] is recorded as “A (A = MIC values ≤ 1)”. The IC50 in data set [2] is 1 to 10 nM; in data set [3], above 10 nM; in data set [4], 0.1 to 1 nM; in data set [6], 1 to 10 nM. In addition, the fraction unbound at 4 h, 10 μM in data set [8] is 0.05 to 0.25. Also, the “MIC values AB NDM-1” value in data set [5] is listed as “C (C = MIC values > 8)”. In data set [7], the “MIC values EC NDM-1” value was “B (B MIC values 2 ÷ 8)”.
Consider `C[C@@H](c1cccc2c(-c3ccc(CN4CCOCC4)nc3)c(C(=O)O)[nH]c12)n1cc(CN2CC(N)C2)oc1=O` [IC-52, 7-[(1S)-1-{5-[(3-aminoazetidin-1-yl)methyl]-2-oxo-2,3-dihydro-1,3-oxazol-3-yl}ethyl]-3-{6-[(morpholin-4-yl)methyl]pyridin-3-yl}-1H-indole-2-carboxylic acid], for which the “MIC values EC NDM-7” value in data set [1] is on record as “B (B MIC values 2 ÷ 8)”. Besides, the IC50 was above 10 nM in data set [2], above 10 nM in data set [3], 1 to 10 nM in data set [4] and below 0.1 nM in data set [6]. For the same compound, in data set [5], the “MIC values AB NDM-1” value is recorded as “C (C = MIC values > 8)”. Further, the “MIC values EC NDM-1” value in data set [7] is given as “B (B MIC values 2 ÷ 8)”.
For `C[C@@H](c1cccc2c(-c3ccc(CS(C)(=N)=O)c(F)c3)c(C(=O)O)[nH]c12)n1cc(CN2CC(N)C2)oc1=O` (stereo partly drawn) [IC-53, 7-[(1S)-1-{5-[(3-aminoazetidin-1-yl)methyl]-2-oxo-2,3-dihydro-1,3-oxazol-3-yl}ethyl]-3-(3-fluoro-4-{[imino(methyl)oxo-λ^6-sulfanyl]methyl}phenyl)-1H-indole-2-carboxylic acid], in data set [1], the “MIC values EC NDM-7” value is listed as “A (A = MIC values ≤ 1)”. In addition, the IC50 was 1 to 10 nM in data set [2], above 10 nM in data set [3], 1 to 10 nM in data set [4] and below 0.1 nM in data set [6]. In addition, in data set [5], the “MIC values AB NDM-1” value is recorded as “B (B MIC values 2 ÷ 8)”. In data set [7], the “MIC values EC NDM-1” value is listed as “A (A = MIC values ≤ 1)”.
On to `C[C@@H](c1cccc2c(-c3ccc(CS(C)(=O)=O)c(F)c3)c(C(=O)O)[nH]c12)N1CC2(CNC2)OC1=O` [IC-65, (S)-3-(3-fluoro-4-((methylsulfonyl)methyl)phenyl)-7-(1-(6-oxo-5-oxa-2,7-diazaspiro[3.4]octan-7-yl)ethyl)-1H-indole-2-carboxylic acid], for which the “MIC values EC NDM-7” value in data set [1] is given as “A (A = MIC values ≤ 1)”. Further, the IC50 was 1 to 10 nM in data set [2], above 10 nM in data set [3], 0.1 to 1 nM in data set [4] and 0.1 to 1 nM in data set [6]. In addition, the “MIC values AB NDM-1” value in data set [5] is reported as “B (B MIC values 2 ÷ 8)”. Besides, the “MIC values EC NDM-1” value in data set [7] was “A (A = MIC values ≤ 1)”.
Take `C/C(=C\C(=O)NCCc1c[nH]cn1)c1cccc2c(-c3ccc(CS(C)(=O)=O)c(F)c3)c(C(=O)O)[nH]c12` [IC-103, 3-[3-Fluoro-4-(methanesulfonylmethyl)phenyl]-7-[(1E)-1-{[2-(1H-imidazol-4-yl)ethyl]carbamoyl}prop-1-en-2-yl]-1H-indole-2-carboxylic acid]: in data set [1], the “MIC values EC NDM-7” value is “C (C = MIC values > 8)”. Moreover, the IC50 in data set [2], in data set [3], in data set [4] and in data set [6] was above 10 nM throughout. The “MIC values AB NDM-1” value in data set [5] is listed as “C (C = MIC values > 8)”. The “MIC values EC NDM-1” value in data set [7] was “C (C = MIC values > 8)”.
On to `C/C(=C\C(=O)N1CCOCC1)c1cccc2c(-c3ccc(CS(C)(=O)=O)c(F)c3)c(C(=O)O)[nH]c12` [IC-105, 3-[3-Fluoro-4-(methanesulfonylmethyl)phenyl]-7-[(2E)-4-(morpholin-4-yl)-4-oxobut-2-en-2-yl]-1H-indole-2-carboxylic acid], for which the “MIC values EC NDM-7” value in data set [1] is “C (C = MIC values > 8)”. Moreover, the IC50 in data set [2], in data set [3], in data set [4] and in data set [6] was above 10 nM each time. In data set [5], the “MIC values AB NDM-1” value was “C (C = MIC values > 8)”. Moreover, the “MIC values EC NDM-1” value in data set [7] is on record as “C (C = MIC values > 8)”.
For the compound `C=C(CC(=O)NCCc1c[nH]cn1)c1cccc2c(-c3ccc(CS(C)(=O)=O)c(F)c3)c(C(=O)O)[nH]c12` [IC-106, 7-(4-((2-(1H-Imidazol-4(5)-yl)ethyl)amino)-4-oxobut-1-en-2-yl)-3-(3-fluoro-4-((methylsulfonyl)-methyl)phenyl)-1H-indole-2-carboxylic acid], the “MIC values EC NDM-7” value in data set [1] is given as “C (C = MIC values > 8)”. Moreover, the IC50 in data set [2], in data set [3], in data set [4] and in data set [6] was above 10 nM each time. In addition, the “MIC values AB NDM-1” value in data set [5] is “C (C = MIC values > 8)”. Further, the “MIC values EC NDM-1” value in data set [7] is given as “C (C = MIC values > 8)”.

(Values after US20240246913A1, “2-CARBOXYL-INDOLE INHIBITORS OF METALLO-BETA-LACTAMASES” (Oxford University Innovation Limited, priority 2021, published 2024).)
